Where “and” joins values, the source holds several entries; their conditions need not be identical. Equal entries are not always repeated. Entries after “also recorded” stand apart in the source; their conditions may differ. Where two headings read alike, the source gives them in different places. Marks after values point to notes of the source that are not given here. Square brackets hold non-standard residues; d marks the D form. Peptide text beside a SMILES is read from it.
How the values were obtained:
[1] = Pharmacokinetics study in rats, plasma; assay type: in vivo; conditions: rat; for plasma concentration: individual rats
Description: (§1) An in-vivo study was carried out in rats to determine the pharmacokinetics (PK) of peptides P8, 8M1D and 8M2D in plasma and CSF. Each peptide was assessed through two dosage routes, intravenous (IV) and subcutaneous (SC). Three rats were assigned to each dose group with each peptide. Total of twelve rats per peptide were used.
Blood was collected through jugular vein cannulas, and the samples were collected into tubes with K2EDTA. After centrifuging at a temperature of 2 to 8° C. at 4,000×g for 5 minutes, the resulting plasma was split into equal aliquots, frozen, and stored at −60 to −80° C. One aliquot was for PK analysis and the other was for Aβ analysis (see Example 4).

[2] = Pharmacokinetics study in rats, CSF; assay type: in vivo; parameters: CSF concentration, Mean IV / CSF concentration, Mean SC: unit not given here; conditions: rat; for CSF concentration, Mean IV: 10 mg/kg IV; for CSF concentration, Mean SC: 10 mg/kg SC
Description: as §1
CSF collection was performed by first anesthetizing animals at specified time points (see Table 5) with a mixture of 80 mg/kg ketamine and 8 mg/kg xylazine. The depth of anesthesia was monitored by toe pinches. CSF was collected via the cisterna magna (˜0.05 mL), and it was split into equal aliquots, frozen, and stored at −60 to −80° C.

[3] = PK analysis of 8M2D in transgenic mice (APPSWE), plasma; conditions: mouse, in vivo, sc, 10 mg/kg; for AUC(0-t): read-out: AUClast; for CL/F: read-out: Cl/F; for Cmax: read-out: Cmax; for Tmax: read-out: Tmax
Description: Pharmacokinetics (PK) of 8M2D was further analyzed with various doses at days 1 and 13 in transgenic mice (APPSWE (B6; SJL 2576 Kha; Taconic)). See Hsiao et al., Correlative memory deficits, Aβ elevation, and amyloid plaques in transgenic mice. Science 274:99-102 (1996); and Haugabook et al., Reduction of Abeta accumulation in the Tg2576 animal model of Alzheimer's disease after oral administration of the phosphatidyl-inositol kinase inhibitor wortmannin. Faseb J 15:16-18 (2001).

time after dosing at which detectable in plasma ([1]; 10 mg/kg IV and SC): ≥ 6 h | exposure in plasma compared with P8 (in words) ([1]; 10 mg/kg IV and SC, at Cmax and most subsequent time points): better exposures than P8 | plasma concentration ([1]; 10 mg/kg IV, 0 hr (pre-dose)): BQL | plasma concentration ([1]; 10 mg/kg IV, 0.167 hr, 10 mg/kg, in ng/mL (unit assumed)): 20,900 and 21,000 and 23,400 | plasma concentration ([1]; 10 mg/kg IV, 0.5 hr, 10 mg/kg, in ng/mL (unit assumed)): 5,620 and 5,680 and 5,940 | plasma concentration ([1]; 10 mg/kg IV, 1 hr, 10 mg/kg, in ng/mL (unit assumed)): 1,450 and 1,040 and 1,190 | plasma concentration ([1]; 10 mg/kg IV, 2 hr, 10 mg/kg, in ng/mL (unit assumed)): 417 and 114 and 136 | plasma concentration ([1]; 10 mg/kg IV, 4 hr, 10 mg/kg): 10.2 and 7.54 ^b and 8.29 ^b | plasma concentration ([1]; 10 mg/kg IV, 6 hr, 10 mg/kg): 2.09 ^b and 1.81 ^b and BQL | plasma concentration ([1]; 10 mg/kg IV, 8 hr): BQL | plasma concentration ([1]; 10 mg/kg IV, 12 hr): BQL | plasma concentration ([1]; 10 mg/kg IV, 24 hr): BQL | plasma concentration ([1]; 10 mg/kg SC, 0 hr (pre-dose)): BQL | plasma concentration ([1]; 10 mg/kg SC, 0.167 hr, 10 mg/kg, in ng/mL (unit assumed)): 16,200 and 13,500 and 13,800 ^a | plasma concentration ([1]; 10 mg/kg SC, 0.5 hr, 10 mg/kg, in ng/mL (unit assumed)): 9,030 and 9,010 and 7,190 | plasma concentration ([1]; 10 mg/kg SC, 1 hr, 10 mg/kg, in ng/mL (unit assumed)): 3,250 and 4,160 and 3,110 | plasma concentration ([1]; 10 mg/kg SC, 2 hr, 10 mg/kg, in ng/mL (unit assumed)): 609 and 987 and 1,040 | plasma concentration ([1]; 10 mg/kg SC, 4 hr, 10 mg/kg, in ng/mL (unit assumed)): 59.2 and 82.8 and 125 | plasma concentration ([1]; 10 mg/kg SC, 6 hr, 10 mg/kg): 3.77 ^b and 9.84 ^b and 21.6 | plasma concentration ([1]; 10 mg/kg SC, 8 hr, 10 mg/kg): 1.61 ^b and 4.37 ^b and 5.19 ^b | plasma concentration ([1]; 10 mg/kg SC, 12 hr): BQL | plasma concentration ([1]; 10 mg/kg SC, 24 hr): BQL | CSF concentration, Mean IV ([2]; 0 hr): 0 | CSF concentration, Mean IV ([2]; 0.5 hr): 104 | CSF concentration, Mean IV ([2]; 1 hr): 55.6 | CSF concentration, Mean IV ([2]; 2 hr): 68 | CSF concentration, Mean IV ([2]; 4 hr): 11.5 | CSF concentration, Mean IV ([2]; 8 hr): 1.75 | CSF concentration, Mean IV ([2]; 12 hr): 0.378 | CSF concentration, Mean IV ([2]; 24 hr): 1.2 | CSF concentration, Mean SC ([2]; 0 hr): 0 | CSF concentration, Mean SC ([2]; 0.5 hr): 59 | CSF concentration, Mean SC ([2]; 1 hr): 53.4 | CSF concentration, Mean SC ([2]; 2 hr): 172 | CSF concentration, Mean SC ([2]; 4 hr): 13.3 | CSF concentration, Mean SC ([2]; 8 hr): 15.3 | CSF concentration, Mean SC ([2]; 12 hr): 0.113 | CSF concentration, Mean SC ([2]; 24 hr): 0 | AUC(0-t) ([3]; Day 1, 10 mg/kg): 12800 ng·h/mL | CL/F ([3]; Day 1, 10 mg/kg): 13 mL/min/kg | Cmax ([3]; Day 1, 10 mg/kg): 14400 ng/mL | Tmax ([3]; Day 1, 10 mg/kg): 10.2 min | Vd/F ([3]; Day 1, 10 mg/kg, read-out: Vz/F): 8.84 L/kg | half-life ([3]; Day 1, 10 mg/kg, read-out: t1/2 (converted)): 474 min | AUC(0-t) ([3]; Day 13, 10 mg/kg): 11600 ng·h/mL | CL/F ([3]; Day 13, 10 mg/kg): 14.1 mL/min/kg | Cmax ([3]; Day 13, 10 mg/kg): 12400 ng/mL | Tmax ([3]; Day 13, 10 mg/kg): 10.2 min
SMILES: CC(=O)N[C@H](CC(=O)O)C(=O)N[C@@H](CCC(=O)O)C(=O)N[C@@H](CCC(=O)O)C(=O)N[C@@H](CCC(=O)O)C(=O)N[C@@H](CC(=O)O)C(=O)N[C@@H](CCC(=O)O)C(=O)N[C@@H](CCC(=O)O)C(=O)N[C@@H](CC(C)C)C(N)=O [8M2D, Ac-dEEEDEEL-NH2] (Ac-[dD]EEEDEEL-NH2)
exposure in CSF compared with P8 (in words) ([2]; 10 mg/kg IV and SC, at Cmax and most subsequent time points, 10 mg/kg): better exposures than P8; also recorded: higher exposure than P8

From patent publication US20220064214A1, “NOVEL PEPTIDES AND USES THEREOF” (CENNA BIOSCIENCES INC., priority 2019, published 2022)
